Results as given in US6696484B2, “Method and compositions for regulation of 5-alpha reductase activity” (University of Chicago Office of Technology and Intellectual …, priority 1997, dated 2004).
Where “and” joins values, the source holds several entries; their conditions need not be identical. Identical values can stand only once. Like-named read-outs stand apart in the source and are kept apart here.

Key:
hamster flank organ [1] = experiment: DHT-stimulated growth of the pigmented macules of hamster flank organs; assay type: in vivo, Syrian golden hamsters; conditions: 0.5 μg DHT + 1 mg compound topically daily, 18 days; for Pigmented macule area: mean±SEM
Experimental: Prepubertal male Syrian golden hamsters, castrated at 4 weeks of age, were obtained from Harlan Sprague-Dawley Co. (Madison, Wis.). Bilateral orchiectomy was performed under anesthesia. The hamsters were housed individually in plastic cages and had free access to Purina rodent chow and water, and were maintained on a 12-h light/12-h dark cycle. Hamsters were used 1-2 weeks after castration and were divided into groups of 4-6 or 9-11 animals. Hair on the lower back of each animal was shaved weekly with an electric hair clipper to expose the flank organs. A treatment solution (5 μl with ethanol as vehicle) was applied topically to the flank organ once a day using a Pipetteman and a polypropylene disposable tip. The treatment solution contained either (a) ethanol alone, (b) an androgen (testosterone or DHT), (c) a test compound, or (d) a combination of an androgen and a test compound. For each hamster, one flank organ was treated while the other organ was not treated. The surface of the flank organ was wiped with an alcohol pad to remove residual compound before each treatment. At the end of each experiment (18 days), animals were killed by CO2 asphyxiation or an intraperitoneal injection of […]. Flank organs from both the treated and untreated sides were examined 1 day after the last treatment by the methods described below. The body weight of each animal was recorded before and after treatment. Experiments were repeated at least twice to assure reproducibility. The “Guide for the care and use of laboratory animals” (NIH publication no. 85-28, revised 1988) and the regulations of the U.S. Department of Agriculture were followed throughout the experiments.
In this study, the growth of the flank organ was determined by measuring the length of the long axis and the short axis of the pigmented spot (pigmented macule) with a caliper with a digital display (Digimatic; Mitutoyo Corporation, Japan). The surface area (in millimeters squared) of the spot was calculated as the product of the long axis and the short axis (Gomez and Frost 1975). The areas of the pigmented spots after treatment with ethanol alone or with test compound (in ethanol) alone were less than 10% of the areas of the pigmented spots after treatment with testosterone alone. These values were deducted from the experimental values and are compared in Tables 8-10. For each experiment, the means and standard error of the means (SEM) of the areas of the untreated and treated macules were computed separately for each treatment group. Within each experiment, an overall F-test (one way ANOVA) was used to test the null hypothesis that the mean sizes of the treated macules were the same in all groups, and Dunnett's multiple range test was used to examine differences between the treatment groups (i.e., green tea catechin+androgen, fatty acid+androgen, EGC derivative+androgen, or fatty acid derivative+androgen) and the control group (androgen treatment only). The Mann-Whitney test was used to examine differences between DHT-treated and the DHT and EGCG-treated groups. P-values <0.05 were taken as indicating statistical significance in all tests (Hochberg and Tamhane 1987).
Each group comprised four to six castrated male hamsters. At the end of the treatment period, the areas of the pigmented macules were determined and are presented as means±SEM in Table 8.
Each group comprised four to six castrated male hamsters. At the end of the treatment period, the areas of the pigmented macules were determined and are expressed as means±SEM as shown in Table 10.

hamster flank organ [2] = experiment: Testosterone-stimulated growth of the pigmented macules of hamster flank organs; assay type: in vivo, Syrian golden hamsters; conditions: for Inhibition (percent decrease in macule area vs androgen-treated macules) / Pigmented macule area / Pigmented macule area, androgen alone (control): 18 days; for Pigmented macule area / Pigmented macule area, androgen alone (control): mean±SEM; for Pigmented macule area, androgen alone (control): 0.5 μg testosterone alone topically daily;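 on all read-outs here: prepubertal Syrian golden hamsters castrated at 4 weeks, ethanol vehicle on one flank organ, macule long and short axes gauged by caliper 1 day after final dose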
5α-reductase [3] = experiment: In vitro enzyme assay of 5α-reductase referred to in the discussion; assay type: biochemical; conditions: Hiipakka and Liao, unpublished results
5α-reductase [4] = experiment: Whole-cell 5α-reductase assay, isozyme not given; assay type: cell-based, human; conditions: isozyme not stated
Text: Intact cells containing 5α-reductase, their microsomes, or nuclear preparations can also be used to screen 5α-reductase inhibitors.

5α-reductase [5] = experiment: Cell-free 5α-reductase assay, isozyme not given; assay type: biochemical, human; conditions: isozyme not stated
5α-reductase [6] = conditions: Liao and Hiipakka 1995, cited from earlier work; for activity against 5α-reductase, in vitro enzyme assay: at 200 μM; for IC50: read-out: IC50, 5α-reductase, in vitro enzyme assay
[7] = target: T1, type 2 human 5α-reductase (Homo sapiens, UniProt P31213); experiment: Cell-free enzymatic assay of 5α-reductase (testosterone to DHT), type 2; assay type: biochemical; design: expressed in transfected cells; host or cells: rat 1A cells infected with pMV7 retrovirus and selected with G418; microsomes for the cell-free assay
T1 sequence (P31213 1-254): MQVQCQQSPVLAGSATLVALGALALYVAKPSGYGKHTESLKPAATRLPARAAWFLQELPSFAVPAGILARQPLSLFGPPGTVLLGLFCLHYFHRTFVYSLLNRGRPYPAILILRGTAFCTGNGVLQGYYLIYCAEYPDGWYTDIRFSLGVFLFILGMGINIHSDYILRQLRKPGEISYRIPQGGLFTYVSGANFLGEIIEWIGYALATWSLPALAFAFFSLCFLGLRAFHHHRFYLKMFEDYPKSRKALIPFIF

[8] = Stability (half-life, oxidation or hydrolysis) in culture medium, buffers and solutions; assay type: physicochemical
Text: These green tea catechins had little inhibitory activity against 5α-reductase in whole cells. The lack of activity in whole cells may be due to an inability of these catechins to cross the cell membrane or to enzymatic or non-enzymatic changes in the structure of these catechins in assays using whole-cell cultures.
Active 5α-reductase inhibitors shown in Tables 1-7 are polyphenols or their derivatives and are easily oxidized or hydrolyzed within several hours to several days, especially in the presence of air or oxygen and at a pH above 7.0. […] More than 80% of the oxidation of hydrolysis can be prevented by the addition of an inorganic acid, such as hydrochloric acid, sulfuric acid, or phosphoric acid, or an organic acid, such as citric acid or acetic acid.

[9] = target: T2, type 1 human 5α-reductase (Homo sapiens, UniProt P18405); experiment: Cell-free enzymatic assay of 5α-reductase (testosterone to DHT), type 1
T2 sequence (P18405 1-259): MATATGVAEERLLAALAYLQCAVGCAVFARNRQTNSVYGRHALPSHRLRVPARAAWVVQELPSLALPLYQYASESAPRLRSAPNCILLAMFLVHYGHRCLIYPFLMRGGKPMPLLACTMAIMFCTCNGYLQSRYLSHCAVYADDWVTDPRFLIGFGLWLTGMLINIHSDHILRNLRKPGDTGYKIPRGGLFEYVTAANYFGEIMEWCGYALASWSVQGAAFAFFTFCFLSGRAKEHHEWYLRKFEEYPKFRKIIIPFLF

LNCaP 104-S tumors = experiment: Growth of LNCaP 104-S tumors in nude mice; assay type: in vivo, BALB/c athymic (nude) mice; conditions: finasteride treatment, normal nude mice, within 4 weeks
[10] = target: T3, 5α-reductase type 2 isozyme (Homo sapiens, UniProt P31213); conditions: cited from earlier work
T3 sequence (P31213 1-254): T1 sequence (P31213 1-254)

MCF-7 tumors = experiment: Growth of MCF-7 tumors in female nude mice; assay type: in vivo, BALB/c athymic (nude) mice
LNCaP 104-R2 tumors = experiment: Growth of LNCaP 104-R2 tumors in castrated male nude mice; assay type: in vivo, BALB/c athymic (nude) mice; conditions: finasteride (2.5 mg) pellets at 7th week in mice with TP since 4th week, from 84±15 (SE) mm^3
[11] = target: T1, type 2 human 5α-reductase; experiment: Whole-cell assay of 5α-reductase, type 2; assay type: cell-based; design: expressed in transfected cells; host or cells: rat 1A cells infected with pMV7 retrovirus and selected with G418; intact cells for the whole-cell assay; conditions: read-out: percent inhibition of 5α-reductase activity, whole-cell assay, Type 2; 100 μM compound
[12] = target: T4, 5α-reductase type 1 isozyme (Homo sapiens, UniProt P18405); conditions: read-out: Km for testosterone, type 1 isozyme; background statement; cited from earlier work
T4 sequence (P18405 1-259): T2 sequence (P18405 1-259)

[13] = 0.5 μg testosterone + 1 mg compound topically daily
[14] = 0.5 μg testosterone + 1 mg compound topically daily, castrated male hamsters
[15] = 0.5 μg testosterone + 2 mg compound topically daily
[16] = cell-free assay, double-reciprocal plots

Structure (SMILES): O=C1c2ccccc2C(=O)c2c1ccc(O)c2O [Alizarin]
- Inhibition (percent decrease in macule area vs androgen-treated macules) (hamster flank organ [1]): 27%
- Pigmented macule area (hamster flank organ [1]): 10.00 ± 0.43 mm^2
- Inhibition (percent decrease in macule area vs androgen-treated macules) (hamster flank organ [2]; [13]): 87%
- Pigmented macule area (hamster flank organ [2]; [14]): 2.40 ± 0.47 mm^2
- IC50 (5α-reductase [3]): 5 to 10 µM

Structure (SMILES): Oc1ccccc1O [Catechol, 1,2-dihydroxybenzene]
- inhibitory activity in the whole-cell assay (5α-reductase [4]): weak inhibitory activity
- inhibitory activity in the cell-free assay (5α-reductase [5]): weak inhibitory activity

Structure (SMILES): Oc1cc(O)c2c(c1)O[C@H](c1ccc(O)c(O)c1)[C@H](O)C2 [EC, epicatechin]
- activity against 5α-reductase, in vitro enzyme assay (5α-reductase [6]): not active
- Inhibition (percent decrease in macule area vs androgen-treated macules) (hamster flank organ [2]; [13]): 37%
- Pigmented macule area (hamster flank organ [2]; [14]): 8.67 ± 1.08 mm^2

Structure (SMILES): O=C(O[C@@H]1Cc2c(O)cc(O)cc2O[C@@H]1c1ccc(O)c(O)c1)c1cc(O)c(O)c(O)c1 [ECG, epicatechin gallate]
- IC50 [7]: 69 µM
- IC50 (5α-reductase [6]): 10 to 20 µM
- Inhibition (percent decrease in macule area vs androgen-treated macules) (hamster flank organ [2]; [13]): 59%
- Pigmented macule area (hamster flank organ [2]; [14]): 5.75 ± 0.57 mm^2

Structure (SMILES): Oc1cc(O)c2c(c1)O[C@H](c1cc(O)c(O)c(O)c1)[C@H](O)C2 [EGC, epigallocatechin]
- activity against 5α-reductase, in vitro enzyme assay (5α-reductase [6]): not active
- Pigmented macule area (hamster flank organ [2]; [14]): 10.75 ± 0.87 mm^2 and 5.50 ± 0.65 mm^2

Structure (SMILES): O=C(O[C@@H]1Cc2c(O)cc(O)cc2O[C@@H]1c1cc(O)c(O)c(O)c1)c1cc(O)c(O)c(O)c1 [EGCG, epigallocatechin gallate]
- half-life in culture medium ([8]; culture medium used for whole-cell assays (pH 7.5), mean±SEM, N=3): 9.5 ± 0.5 min
- difference in stability, phosphate buffer vs culture medium ([8]; pH 7.0 vs pH 7.5): 8 fold
- half-life in phosphate buffered saline ([8]; pH 7.5): 21.2 ± 2.0 min
- half-life in phosphate buffer ([8]; phosphate buffer used for cell-free assays (pH 7.0), mean±SEM, N=3): 74.7 ± 6.4 min
- Inhibition (percent decrease in macule area vs androgen-treated macules) (hamster flank organ [1]): 97%
- Pigmented macule area (hamster flank organ [1]): 0.50 ± 0.26 mm^2
- IC50 (5α-reductase [6]): 10 to 20 µM
- Inhibition (percent decrease in macule area vs androgen-treated macules) (hamster flank organ [2]; [13]): 40% and 64%
- Pigmented macule area (hamster flank organ [2]; [14]): 8.25 ± 1.43 mm^2 and 6.25 ± 0.82 mm^2
- Inhibition (percent decrease in macule area vs androgen-treated macules) (hamster flank organ [2]; [15]): 60%
- Pigmented macule area (hamster flank organ [2]; [15]): 5.62 ± 0.75 mm^2
- reversibility of inhibition after pelleting and resuspending microsomes ([9]; 100 μM EGCG): could not be reversed
- mode of inhibition with respect to the substrate NADPH [9, 16]: competitive inhibitor
- mode of inhibition with respect to the substrate testosterone [9, 16]: non-competitive inhibitor

Structure (SMILES): CC(C)(C)NC(=O)[C@H]1CC[C@H]2[C@@H]3CC[C@H]4NC(=O)C=C[C@]4(C)[C@H]3CC[C@]12C [Finasteride]
- reduction of LNCaP 104-S tumor size (LNCaP 104-S tumors): 45%
- affinity for isozyme 2 relative to isozyme 1 ([10]; competitive inhibitor, Russell and Wilson, 1994): 30 fold
- effect on growth of MCF-7 tumors (MCF-7 tumors): did not affect
- LNCaP 104-R2 tumor size within 4 weeks after finasteride implantation (LNCaP 104-R2 tumors): 593±144 mm^3

Structure (SMILES): CCCCC/C=C\C/C=C\C/C=C\CCCCC(=O)OC [Methyl ester of γ-linolenic acid]
- IC50 (5α-reductase [4]): > 100 µM
- inhibitory activity in the whole-cell assay (5α-reductase [4]): little activity
- IC50 (5α-reductase [5]): > 100 µM

Structure (SMILES): Oc1cccc(O)c1O [Pyrogallol, 1,2,3-trihydroxybenzene]
- inhibitory activity in the whole-cell assay (5α-reductase [4]): weak inhibitory activity
- inhibitory activity in the cell-free assay (5α-reductase [5]): weak inhibitory activity
- inhibition at 100 µM [11]: 15%

Structure (SMILES): C[C@]12CC[C@H]3[C@@H](CCC4=CC(=O)CC[C@@]43C)[C@@H]1CC[C@@H]2O [T, testosterone, reference compound]
- Km ([10]; read-out: Km for testosterone, type 2 isozyme, background statement): < 0.01 µM
- Km [12]: > 1 µM
- Pigmented macule area, androgen alone (control) (hamster flank organ [2]): 13.83 ± 1.43 mm^2 and 17.40 ± 1.93 mm^2 and 18.65 ± 0.69 mm^2
- Pigmented macule area, androgen alone (control) (hamster flank organ [2]; listed as testosterone): 15-20 mm^2
- stimulation of flank organ growth relative to the maximum stimulation (hamster flank organ [2]; 0.5 μg testosterone per flank organ per day): 50-70%

Structure (SMILES): CCCCC/C=C\C/C=C\C/C=C\CCCCC(=O)O[C@H]1CC[C@@]2(C)C(=CC[C@H]3[C@@H]4CC[C@H]([C@H](C)CCCC(C)C)[C@@]4(C)CC[C@@H]32)C1 [cholesterol ester of γ-linolenic acid]
- IC50 (5α-reductase [4]): > 100 µM
- inhibitory activity in the whole-cell assay (5α-reductase [4]): little activity
- IC50 (5α-reductase [5]): > 100 µM

Structure (SMILES): O=C(O)c1cc(O)c(O)c(O)c1 [gallic acid, 3,4,5-trihydroxybenzoic acid]
- inhibitory activity in the whole-cell assay (5α-reductase [4]): weak inhibitory activity
- inhibitory activity in the cell-free assay (5α-reductase [5]): weak inhibitory activity
